The values below come from patent US12187696B2, “Urea motif containing compounds and derivatives thereof as antibacterial drugs” (Technische Universität München, priority 2016, dated 2025).

As a reminder, the IC50 is the concentration that gives 50% inhibition. Low readings indicate greater potency in that assay, high ones weaker potency in that assay.

Holding throughout (assay type): cell-based
Experiment [1] deals with Staphylococcus aureus NCTC8325. As to the kind of experiment: Minimal inhibitory concentration (MIC) assay. Conditions: Staphylococcus aureus, NCTC8325; inhibition of bacterial growth of S. aureus NCTC 8325; obtained by MIC assay. The method, then:
Minimum inhibitory concentrations (MICs) represent the lowest concentration of sample that will inhibit the visible growth of a microorganism after overnight incubation, and was obtained by a 96 well plate-based assay (Thermo Scientific) with serial dilutions of the probes tested. […] Bacteria were diluted in fresh medium to a concentration of 10^5 CFU/mL. In the case of all other bacteria species tested, fresh media was inoculated 1/10000 and directly used for testing. Diluted bacterial cultures (99 μL) were added to various concentrations of probe (1 μL of the respective stock in DMSO). A growth control containing DMSO (1 μL) and cultivated medium (99 μL) and a sterile control containing fresh medium (100 μL) were run on every 96 well plate in triplicates. After incubation at 37° C. with gentle shaking (200 rpm) for 24 h, the dilution series was analysed for microbial growth, usually indicated by turbidity and/or a pellet of bacteria at the bottom of the well. The lowest concentration in the dilution series at which no growth of bacteria could be observed by eye was defined as the minimum inhibitory concentration (MIC) of the probe. MIC values were determined by three independent experiments with at least triplicate runs for each concentration. […] Both compounds were tested against various bacterial strains. […] The assay was performed as described above.

The test system of experiment [2] is S. aureus NCTC 8325 persister cells. As to the kind of experiment: Persister cell assay II. Conditions: TSB, with or without 30 μg/mL oxacillin; 20 h or 70 h; 2.4 μM PK/X17-1-150 or PK/X17-4-011, 24 μM sorafenib or PK/X17-2-011, 5 μg/mL ciprofloxacin. The method, then: Persister cell assay II. Tryptic soy broth (50 mL in 250 mL culture flasks) was inoculated 1:1000 with overnight cultures of NCTC 8325 and grown at 37° C. and 200 rpm until an OD600 of 4 was reached or overnight (ON). Serial dilution were prepared and plated to determine the cell numbers in the inoculum. […]. […] After 20 h (A) or 70 h (B) of treatment, cells were harvested, washed two times with PBS (10000×g, 3 min), serially diluted and plated on agar plates for determination of surviving cell numbers.

Experiment [3] has the same test system. The experiment can be described thus: Persister cell assay I. As to conditions: gentamicin-selected persisters in PBS; 70 h; 2.4 μM PK/X17-1-150, 24 μM sorafenib, 5 μg/mL ciprofloxacin.

On to `COC(=O)c1cccc(Oc2ccc(NC(=O)Nc3ccc(Cl)c(C(F)(F)F)c3)cc2)c1` [Example 1, Methyl 3-(4-(3-(4-chloro-3-(trifluoromethyl)phenyl)ureido)phenoxy)benzoate], for which half-maximal inhibition in experiment [1] (IC50) was put at 500 nM.

On to `O=C(Nc1ccc(C(=O)c2ccccc2)cc1)Nc1ccc(Cl)c(C(F)(F)F)c1` [Example 2, 1-(4-Benzoylphenyl)-3-(4-chloro-3-(trifluoromethyl)phenyl)urea], for which, in experiment [1], inhibition was half-maximal at 1000 nM (IC50).

In turn, `CNC(=O)c1ccc(NC(=O)Nc2ccc(Cl)c(C(F)(F)F)c2)cc1` [Example 3, 4-(3-(4-Chloro-3-(trifluoromethyl)phenyl)ureido)-N-methylbenzamide] yielded an IC50 in experiment [1] of 30000 nM. In experiment [1], `COc1ccc(NC(=O)Nc2ccc(Cl)c(C(F)(F)F)c2)cc1` [Example 5, 1-(4-Chloro-3-(trifluoromethyl)phenyl)-3-(4-methoxyphenyl)urea] returned an IC50 of 3000 nM. The compound `O=C(Nc1ccc2c(c1)OCO2)Nc1ccc(Cl)c(C(F)(F)F)c1` [Example 6, 1-(Benzo[d][1,3]dioxol-5-yl)-3-(4-chloro-3-(trifluoromethyl)phenyl)urea] registered an IC50 in experiment [1] of 10000 nM. In the case of `COc1ccc(NC(=O)Nc2ccc(Cl)c(C(F)(F)F)c2)cc1OC` [Example 7, 1-(4-Chloro-3-(trifluoromethyl)phenyl)-3-(3,4-dimethoxyphenyl)urea], the IC50 in experiment [1] is 30000 nM.

Regarding `COc1cc(NC(=O)Nc2ccc(Cl)c(C(F)(F)F)c2)cc(OC)c1OC` [Example 8, 1-(4-Chloro-3-(trifluoromethyl)phenyl)-3-(3,4,5-trimethoxyphenyl)urea], half-maximal inhibition in experiment [1] (IC50) was put at 30000 nM. Same read-out and setting: under `O=C(Nc1ccc(Cl)c(C(F)(F)F)c1)Nc1cccc2c1OC(F)(F)O2` [Example 9, 1-(4-Chloro-3-(trifluoromethyl)phenyl)-3-(2,2-difluorobenzo[d][1,3]dioxol-4-yl)urea] stands 1000 nM; under `FC1(F)Oc2ccc(NC(=S)Nc3ccc(Cl)c(C(F)(F)F)c3)cc2O1` [Example 10, 1-(4-Chloro-3-(trifluoromethyl)phenyl)-3-(2,2-difluorobenzo[d][1,3]dioxol-5-yl)thiourea], 1000 nM; under `O=C(Nc1ccc(Cl)c(C(F)(F)F)c1)Nc1ccc2ccccc2c1` [Example 11, 1-(4-Chloro-3-(trifluoromethyl)phenyl)-3-(naphthalen-2-yl)urea], 1000 nM. The same measure, in the same setting: with `O=C(Nc1ccc(Cc2ccccc2)cc1)Nc1ccc(Cl)c(C(F)(F)F)c1` [Example 12, 1-(4-Benzylphenyl)-3-(4-chloro-3-(trifluoromethyl)phenyl)urea] the figure was 1000 nM; with `CCc1ccc(NC(=O)Nc2ccc(Cl)c(C(F)(F)F)c2)cc1` [Example 13, 1-(4-Chloro-3-(trifluoromethyl)phenyl)-3-(4-ethylphenyl)urea], 1000 nM; with `Cc1cc(NC(=O)Nc2ccc3c(c2)OC(F)(F)O3)ccc1Cl` [Example 14, 1-(4-Chloro-3-methylphenyl)-3-(2,2-difluorobenzo[d][1,3]dioxol-5-yl)urea], 1000 nM. `O=C(Nc1cccc(C(F)(F)F)c1)Nc1ccc2c(c1)OC(F)(F)O2` [Example 15, 1-(2,2-difluorobenzo[d][1,3]dioxol-5-yl)-3-(3-(trifluoromethyl)phenyl)urea]: half-maximal inhibition in experiment [1] (IC50) was put at 1000 nM. `O=C(Nc1ccccc1)Nc1ccc(Cl)c(C(F)(F)F)c1` [Example 16, 1-(4-Chloro-3-(trifluoromethyl)phenyl)-3-phenylurea] showed an IC50 in experiment [1] of 3000 nM. Same read-out and setting: under `CCCCOC(=O)c1ccc(NC(=O)Nc2ccc(Cl)c(C(F)(F)F)c2)cc1` [Example 17, Butyl 4-(3-(4-chloro-3-(trifluoromethyl)phenyl)ureido)benzoate] stands 600 nM; under `O=C(Nc1ccc(Oc2ccccc2)cc1)Nc1ccc(Cl)c(C(F)(F)F)c1` [Example 18, 1-(4-Chloro-3-(trifluoromethyl)phenyl)-3-(4-phenoxyphenyl)urea], 600 nM.

Consider `O=C(Nc1cccc(NC(=O)Nc2ccc(Cl)c(C(F)(F)F)c2)c1)Nc1ccc(Cl)c(C(F)(F)F)c1` [Example 19], for which, in experiment [1], inhibition was half-maximal at 1000 nM (IC50). This IC50 is about 1.7-fold higher than that of the compound before. The same measure, in the same setting: under `C#CCCC1(CCNC(=O)c2cc(Oc3ccc(NC(=O)Nc4ccc(Cl)c(C(F)(F)F)c4)cc3)ccn2)N=N1` [Probe compound, N-(2-(3-(but-3-yn-1-yl)-3H-diazirin-3-yl)ethyl)-4-(4-(3-(4-chloro-3-(trifluoromethyl)phenyl)ureido)phenoxy)picolinamide] stands 10000 nM. For the compound `O=C(Nc1ccccc1)Nc1ccc2c(c1)OC(F)(F)O2` [Reference Example 1, 1-(2,2-Difluorobenzo[d][1,3]dioxol-5-yl)-3-phenylurea], in experiment [1], the IC50 was more than 100000 nM. The “viable persister cells (CFU/mL) vs DMSO control” value in experiment [2] is listed as “no change”. Take `Cc1ccc(NC(=O)Nc2ccc3c(c2)OC(F)(F)O3)cc1` [Reference Example 2, 1-(2,2-Difluorobenzo[d][1,3]dioxol-5-yl)-3-(p-tolyl)urea]: in experiment [1], the IC50 was more than 100000 nM. The compound `Cc1cc(C)c(NC(=O)Nc2ccc3c(c2)OC(F)(F)O3)c(C)c1` [Reference Example 3, 1-(2,2-Difluorobenzo[d][1,3]dioxol-5-yl)-3-mesitylurea] showed an IC50 in experiment [1] of more than 100000 nM. Still for that read-out and setting: under `CCCCCCCCNC(=O)Nc1ccc2c(c1)OC(F)(F)O2` [Reference Example 4, 1-(2,2-Difluorobenzo[d][1,3]dioxol-5-yl)-3-octylurea] stands more than 100000 nM. `CNC(=O)c1cc(Oc2ccc(NC(=O)Nc3ccccc3)cc2)ccn1` [Reference Example 5, N-Methyl-4-(4-(3-phenylureido)phenoxy)picolinamide] showed an IC50 in experiment [1] of more than 100000 nM. Moreover, the “viable persister cells (CFU/mL) vs DMSO control” value in experiment [2] was “no change”. Turning to `O=C(O)c1cn(C2CC2)c2cc(N3CCNCC3)c(F)cc2c1=O` [ciprofloxacin, reference compound], the “viable persister cells (CFU/mL) vs DMSO control” value in experiment [3] and in experiment [2] was “no change” in each case.
